Data reported in patent publication US20240254138A1, “TRICYCLIC PYRIMIDINES AS CYCLIN-DEPENDENT KINASE 7 (CDK7) INHIBITORS” (JANSSEN PHARMACEUTICA NV, priority 2021, published 2024).
Where two headings read alike, the source gives them in different places.

Tests used:
[1] = tested on: RNA Polymerase II Serine 5 phosphorylation in A549 cells overexpressing CDK7-mutant (C312S); assay: Imaging-based cellular RNA PolII Ser5 phosphorylation assay in A549 cells overexpressing CDK7-mutant (C312S); format: cell-based, human; details: RNA PolII Ser5 phosphorylation, averaged over all measurements; for CDK7_A549 mutant hCDK7(pIC50): A549 cells overexpressing CDK7-mutant (C312S); for IC50: Homo sapiens, A549, A549 cells overexpressing CDK7-mutant (C312S), read-out: CDK7_A549 mutant hCDK7(pIC50) (converted)
In short: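 Readout was automated imaging of anti-phospho-Ser5 Rpb1 CTD immunofluorescence, with IC50 fitted to % control versus concentration. Cells were A549 stably overexpressing non-covalently targetable CDK7 C312S alongside wild-type, exposed to compound 3 h at 37 °C. DMSO and 10 μM reference compound served as controls.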

[2] = target: CDK7/cyclinH/MAT1 trimeric complex (Homo sapiens, UniProt P50613); assay: In vitro CDK7 assay, potency of irreversible covalent inhibitors (kinact/KI), coupled PK/LDH ADP readout at 340 nm
[3] = tested on: RNA Polymerase II Serine 5 phosphorylation (Rpb1 CTD, downstream substrate of CDK7) in A549 cells; assay: Imaging-based cellular RNA PolII Ser5 phosphorylation assay in A549 cells; format: cell-based, human; details: wild-type CDK7, RNA PolII Ser5 phosphorylation, averaged over all measurements; for CDK7_A549 Wild-type CDK7 (pIC50): A549 cells; for IC50: Homo sapiens, A549, A549 cells, read-out: CDK7_A549 Wild-type CDK7 (pIC50) (converted)
In short: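 IC50 derived by fitting % control (DMSO high, 10 μM reference low) against concentration, with Hill slope. Readout: high-content imaging of phospho-Ser5 Rpb1 CTD antibody staining in fixed, permeabilized A549 cells exposed to compound 3 h after 20 h culture in 1% FBS DMEM.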

[4] = CDK7 (20 nM enz.) (KI, μM), 20 nM enzyme
[5] = read-out: CDK7 (20 nM enz.) (kinact, s^−1), 20 nM enzyme
[6] = read-out: CDK7 (20 nM enz.) (kinact/KI, M^−1*s^−1), 20 nM enzyme
[7] = read-out: CDK7 (20 nM enz.) (kobs/[I], M^−1*s^−1), 20 nM enzyme
[8] = read-out: CDK7 (kinact/KI, M^−1*s^−1), potency of irreversible covalent inhibitors, 1 mM ATP, room temperature, averaged values over all measurements

Chain of CDK7/cyclinH/MAT1 trimeric complex (P50613 whole entry): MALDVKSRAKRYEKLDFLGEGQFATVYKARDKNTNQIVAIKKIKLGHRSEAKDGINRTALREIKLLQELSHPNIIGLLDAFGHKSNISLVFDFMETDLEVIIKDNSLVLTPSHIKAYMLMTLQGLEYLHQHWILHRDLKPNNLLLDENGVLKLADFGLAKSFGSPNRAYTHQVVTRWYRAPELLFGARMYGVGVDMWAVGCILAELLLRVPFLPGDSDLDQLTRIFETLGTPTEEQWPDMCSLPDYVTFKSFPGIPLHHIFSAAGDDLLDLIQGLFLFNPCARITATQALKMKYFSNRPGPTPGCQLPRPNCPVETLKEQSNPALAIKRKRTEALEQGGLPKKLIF
Chain of CDK7/cyclinH/MAT1 trimeric complex (P51946 whole entry partner): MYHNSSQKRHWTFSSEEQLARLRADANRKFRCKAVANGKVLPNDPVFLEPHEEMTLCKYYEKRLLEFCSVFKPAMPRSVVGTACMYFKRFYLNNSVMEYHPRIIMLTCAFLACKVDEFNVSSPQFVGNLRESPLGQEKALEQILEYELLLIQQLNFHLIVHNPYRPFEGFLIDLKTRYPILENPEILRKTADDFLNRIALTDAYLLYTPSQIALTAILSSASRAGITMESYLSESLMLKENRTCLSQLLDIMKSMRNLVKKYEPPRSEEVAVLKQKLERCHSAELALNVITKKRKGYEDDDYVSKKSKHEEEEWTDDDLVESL
Chain of CDK7/cyclinH/MAT1 trimeric complex (P51948 whole entry partner): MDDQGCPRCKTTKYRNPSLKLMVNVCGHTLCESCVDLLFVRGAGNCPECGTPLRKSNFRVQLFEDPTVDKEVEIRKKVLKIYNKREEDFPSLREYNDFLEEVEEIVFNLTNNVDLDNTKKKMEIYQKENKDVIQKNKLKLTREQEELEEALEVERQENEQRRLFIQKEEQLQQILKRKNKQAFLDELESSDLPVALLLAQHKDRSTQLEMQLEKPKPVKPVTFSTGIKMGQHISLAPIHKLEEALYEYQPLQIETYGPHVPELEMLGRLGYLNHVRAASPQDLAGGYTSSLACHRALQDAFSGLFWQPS

Row | SMILES | Ki [2, 4] | kinact [2, 5] | IC50 [1] | kinact/KI [2, 6] | IC50 [3] | further results
1 | C=CC(=O)N1CC(N2CC[C@H](c3ccc4c(c3)Nc3nccc(N5CCOCC5)c3CO4)[C@@H](F)C2)C1 (mixture of isomers) [Compound 226] | 0.67 µM | 6.76e-05 s⁻¹ |  |  |  | CDK7_A549 mutant hCDK7(pIC50) [1]: <5; CDK7 (20 nM enz.) (kinact/KI, M^−1*s^−1) ([2]; 20 nM enzyme): 100.867 M⁻¹ s⁻¹; CDK7_A549 Wild-type CDK7 (pIC50) [3]: 6.55
2 | C=CC(=O)N1CC[C@@H](N2CC(c3cc(C)c4c(c3)Nc3nccc(N5CCOCC5)c3CO4)C2)[C@@H](F)C1 (mixture of isomers) [Compound 202] | 0.0239 µM | 3.55e-05 s⁻¹ | > 10000 nM | 1490 M⁻¹ s⁻¹ | 107 nM | 
3 | C=CC(=O)N1CC(N2CC[C@@H](c3ccc4c(c3)Nc3nccc(N5CCOCC5)c3CO4)[C@H](O)C2)C1 (racemic) [Compound 216] | 0.472 µM | 6.66e-05 s⁻¹ | > 10000 nM | 141 M⁻¹ s⁻¹ | 550 nM | 
4 | CC#CC(=O)N1CC[C@@H](N2CC(c3cc4c(c(C5CC5)n3)OCc3c(N5CCOCC5)ccnc3N4)C2)C1 (single isomer, unassigned) [Compound 425] | 0.0971 µM | 2.48e-05 s⁻¹ | > 10000 nM | 255 M⁻¹ s⁻¹ | 200 nM | 
5 | C=CC(=O)N1CC(N2CCC(c3cc4c(c(C(N)=O)c3)OCc3c(C5CCOCC5)ccnc3N4)CC2)C1 [Compound 158] | 0.204 µM | 7.68e-05 s⁻¹ | > 3980 nM | 377 M⁻¹ s⁻¹ | 126 nM | 
6 | C#Cc1cc2c(cc1C1CCN(C3CN(C(=O)C=C)C3)CC1)Nc1nccc(C3CCOCC3)c1C(C)O2 (stereo not drawn) [Compound 169] | 0.0532 µM | 3.63e-05 s⁻¹ | > 10000 nM | 682 M⁻¹ s⁻¹ | 53.7 nM | 
7 | C=CC(=O)N1CC(N2CC(c3cc4c(c(C(F)(F)F)c3)OCc3c(N5CCOCC5)ccnc3N4)C2)C1 [Compound 267] |  |  | ~7240 nM |  | 23.4 nM | kinact/KI [2, 7]: 977 M⁻¹ s⁻¹
8 | CC#CC(=O)N1CCC(N2CC(c3cc4c(c(C#N)n3)O[C@H](C)c3c(C5CCOCC5)ccnc3N4)C2)CC1 (single isomer, unassigned) [Compound 517] | 2.91 µM | 4.23e-05 s⁻¹ | > 10000 nM | 14.3 M⁻¹ s⁻¹ | 3020 nM | 
9 | CC#CC(=O)N1CCC(N2CC(c3cc4c(c(C#N)n3)OCc3c(N5CCOCC5)ccnc3N4)C2)CC1 [Compound 385] | 0.0211 µM | 1.2e-05 s⁻¹ | 4270 nM | 570 M⁻¹ s⁻¹ | 158 nM | 
10 | C=CC(=O)N1CC[C@@H](N2CC(c3cc4c(c(C(F)(F)F)n3)O[C@@H](C)c3c(N5CCOCC5)ccnc3N4)C2)C1 (single isomer, unassigned) [Compound 504] |  |  | 7760 nM | 681 M⁻¹ s⁻¹ | 47.9 nM | 
11 | C=CC(=O)N1CC(N2CCC(c3ccc4c(c3)Nc3nccc(N5CCOCC5)c3C(C)O4)CC2)C1 (stereo not drawn) [Compound 22] | 0.0524 µM | 7.22e-05 s⁻¹ | > 10000 nM | 1870 M⁻¹ s⁻¹ | 56.2 nM | kinact/KI [2, 8]: 52.4 M⁻¹ s⁻¹
12 | C=CC(=O)N1CC[C@H](N2CC(c3cc4c(c(C)n3)OCc3c(C5CCOCC5)ccnc3N4)C2)[C@@H](F)C1 (mixture of isomers) [Compound 242] | 0.129 µM | 2.7e-05 s⁻¹ | > 10000 nM | 209 M⁻¹ s⁻¹ | 316 nM | 
13 | C=CC(=O)N1CC[C@H](N2CC(c3cc(C)c4c(c3)Nc3nccc(-c5cnn(C)c5)c3CO4)C2)C1 (single isomer, unassigned) [Compound 192] | 0.0907 µM | 4.14e-05 s⁻¹ | > 10000 nM | 456 M⁻¹ s⁻¹ | 79.4 nM | 
14 | C=CC(=O)N1CC[C@@H](N2CC(c3cc4c(c(C)n3)OCc3c(N5CCOCC5)ccnc3N4)C2)[C@H](F)C1 (mixture of isomers) [Compound 220] | 0.114 µM | 2.74e-05 s⁻¹ | > 10000 nM | 240 M⁻¹ s⁻¹ | 631 nM | 
15 | CC#CC(=O)N1CC(N2CCC(c3cc4c(c(C)n3)O[C@H](C)c3c(-c5cnn(C)c5)ccnc3N4)CC2)C1 (single isomer, unassigned) [Compound 541] | 0.0182 µM | 4.94e-05 s⁻¹ | > 10000 nM | 2710 M⁻¹ s⁻¹ | 155 nM | 
16 | CC#CC(=O)N1CC(N2CCC(c3cc4c(c(C)n3)O[C@H](C)c3c(N5CCOCC5)ccnc3N4)CC2)C1 (single isomer, unassigned) [Compound 345] | 0.131 µM | 3.88e-05 s⁻¹ | > 10000 nM | 296 M⁻¹ s⁻¹ | 87.1 nM | 

Row | SMILES | Ki [2, 4] | kinact [2, 5] | IC50 [1] | kinact/KI [2, 6] | IC50 [3] | further results
17 | C=CC(=O)N1CC(N2CC[C@H](c3ccc4c(c3)Nc3nccc(N5CCOCC5)c3CO4)C[C@H]2C)C1 (single isomer, unassigned) [Compound 76] |  |  | > 10000 nM |  | 79.4 nM | kinact/KI [2, 7]: 1650 M⁻¹ s⁻¹
18 | C=CC(=O)N1CC[C@H](N2CC(c3cc4c(c(C(F)(F)F)n3)OCc3c(N5CCOCC5)ccnc3N4)C2)C1 (single isomer, unassigned) [Compound 404] |  |  |  |  |  | CDK7_A549 mutant hCDK7(pIC50) [1]: 5.09; CDK7 (20 nM enz.) (kobs/[I], M^−1*s^−1) ([2]; 20 nM enzyme): 1280.59 M⁻¹ s⁻¹; CDK7_A549 Wild-type CDK7 (pIC50) [3]: 7.13
19 | CC#CC(=O)N1CCC(N2CC[C@@H](c3cc4c(c(C)n3)OCc3c(N5CCOCC5)ccnc3N4)C2)CC1 (single isomer, unassigned) [Compound 433] | 0.185 µM | 1.89e-05 s⁻¹ | 5370 nM | 102 M⁻¹ s⁻¹ | 170 nM | 
20 | C=CC(=O)N1CC[C@@H](N2CC(c3cc(C)c4c(c3)Nc3nccc(N5CCOCC5)c3CO4)C2)C1 (single isomer, unassigned) [Compound 327] | 0.0302 µM | 4.16e-05 s⁻¹ | ~10000 nM | 1380 M⁻¹ s⁻¹ | 79.4 nM | 
21 | C=CC(=O)N1CC(N2CC(c3cc4c(c(C#N)n3)OCc3c(C5CCOCC5)ccnc3N4)C2)C1 [Compound 339] | 0.0746 µM | 7.81e-05 s⁻¹ | > 10000 nM | 1050 M⁻¹ s⁻¹ | 145 nM | 
22 | C=CC(=O)N1CC(N2CCC(c3cc(C)c4c(c3)Nc3nccc(C5=CCS(=O)(=O)CC5)c3CO4)CC2)C1 [Compound 81] | 0.067 µM | 4.29e-05 s⁻¹ | > 10000 nM | 640 M⁻¹ s⁻¹ | 417 nM | 
23 | C=CC(=O)N1CCC(N2CCC(c3cc(C)c4c(c3)Nc3nccc(-c5cnn(C)c5)c3CO4)CC2)CC1 [Compound 105] | 0.0256 µM | 5.8e-05 s⁻¹ | 2570 nM | 2260 M⁻¹ s⁻¹ | 16.2 nM | 
24 | C=CC(=O)N1CC[C@H](N2CC(c3cc4c(c(C)n3)O[C@H](C)c3c(-c5cnn(C)c5)ccnc3N4)C2)C1 (single isomer, unassigned) [Compound 478] |  |  | > 10000 nM | 292 M⁻¹ s⁻¹ | 158 nM | 
25 | CC#CC(=O)N1CCC(N2CC(c3cc4c(c(C(F)(F)F)n3)O[C@@H](C)c3c(N5CCOCC5)ccnc3N4)C2)CC1 (single isomer, unassigned) [Compound 502] |  |  | > 10000 nM | 9.74 M⁻¹ s⁻¹ | 603 nM | 
26 | C=CC(=O)N1CC(N2CCC(c3cc4c(c(C5CC5)c3)OCc3c(C5CCOCC5)ccnc3N4)CC2)C1 [Compound 87] |  |  | > 10000 nM |  | 81.3 nM | kinact/KI [2, 7]: 1420 M⁻¹ s⁻¹
27 | C=CC(=O)N1CC(N2CCC(c3cc(Br)c4c(c3)Nc3nccc(C5CCOCC5)c3CO4)CC2)C1 [Compound 82] |  |  | 7940 nM |  | 46.8 nM | kinact/KI [2, 7]: 1570 M⁻¹ s⁻¹
28 | C=CC(=O)N1CC(N2CC(c3cc(C#N)c4c(c3)Nc3nccc(N5CCOCC5)c3CO4)C2)C1 [Compound 253] |  |  | 6310 nM |  | 50.1 nM | kinact/KI [2, 7]: 989 M⁻¹ s⁻¹
29 | C=CC(=O)N1CC(N2CCC(c3ccc4c(c3)Nc3ncc(C)c(N5CCOCC5)c3CO4)CC2)C1 [Compound 37] |  |  | > 10000 nM |  | 851 nM | Ki ([2]; CDK7 (KI(μM)), […], 1 mM ATP, room temperature, averaged values over all measurements): 0.129 µM; kinact ([2]; read-out: CDK7 (kinact, s^−1), kinact = maximal rate of inactivation, 1 mM ATP, room temperature, averaged values over all measurements): 0.00011 s⁻¹; kinact/KI [2, 8]: 849 M⁻¹ s⁻¹
30 | CC#CC(=O)N1CC(c2nc(C)c(-c3cc4c(c(C)n3)OCc3c(N5CCOCC5)ccnc3N4)c(C)n2)C1 [Compound 278] | 0.226 µM | 3.13e-05 s⁻¹ | > 10000 nM | 139 M⁻¹ s⁻¹ | 166 nM | 
31 | C=CC(=O)N1CC[C@H](N2CC(c3cc(C)c4c(c3)Nc3nccc(N5CCOCC5)c3[C@@H](C)O4)C2)C1 (single isomer, unassigned) [Compound 239] |  |  | 7080 nM |  | 43.7 nM | kinact/KI [2, 7]: 1040 M⁻¹ s⁻¹
32 | C=C(C(=O)N1CCC(N2CC(c3cc4c(c(C)n3)OCc3c(-c5cnn(C)c5)ccnc3N4)C2)CC1)n1cccn1 [Compound 349] | 0.0563 µM | 3.25e-05 s⁻¹ | 8320 nM | 578 M⁻¹ s⁻¹ | 97.7 nM | 
